Laboratory results as given in PubChem BioAssay AID493099 (Broad Institute, 2011).
Active and inactive are the calls of the source. No rule for the calls is given here.

System: not listed separately
Assay: PubChem AID 493099
Settings: NIH-3T3 viability with fluconazole, Alamar Blue, 48 h; at 2.6 µM (top of the series)
For `COc1ccc2c(c1)c1nc3n(c(=O)c1n2CC(=O)N1CCC(C)CC1)CCS3`, the activity change, negative = toxicity was 18.1% (inactive).

Same assay, conditions: NIH-3T3 viability with fluconazole, Alamar Blue, 48 h; at 26 µM (top of the series)
For `Cc1ccc(C(=O)N2CCN(c3ccccn3)CC2)cc1`, the activity change, negative = toxicity was 5.98% (inactive). With `O=C(O)c1nn(Cc2ccc(Cl)cc2)c2ccccc12` the activity change, negative = toxicity was -9.65% (inactive). In the case of `O=C(c1ccccc1Cl)N1CCN(c2ccccn2)CC1`, the activity change, negative = toxicity is reported as -7.93% (inactive). In the case of `O=C(c1cccc(Cl)c1)N1CCN(c2ccccn2)CC1`, the activity change, negative = toxicity is reported as -24.6% (inactive). In the case of `N#Cc1cccnc1N1CCN(C(=O)c2ccc(Cl)cc2)CC1`, the activity change, negative = toxicity is reported as 6.33% (inactive). For `COC(=O)Cn1nc(-c2ccc(Cl)cc2)c2ccccc21`, the activity change, negative = toxicity was -11% (inactive). In the case of `Cc1cccc(N2CCN(C(=O)c3ccc(Cl)cc3)CC2)n1`, the activity change, negative = toxicity is reported as -19.6% (inactive). In the case of `COC(=O)Cn1c(-c2ccccc2)nc2ccccc21`, the activity change, negative = toxicity is reported as -4.41% (inactive). For `COc1ccc2c(c1)c1nc3n(c(=O)c1n2CC(=O)N1CCC(Cc2ccccc2)CC1)CCS3`, the activity change, negative = toxicity was -12% (inactive). For `O=C(Cn1c2ccccc2c2nc3n(c(=O)c21)CCS3)N1CCCC1`, the activity change, negative = toxicity was -17.5% (inactive). In the case of `c1ccc(-c2n[nH]c3ccccc23)cc1`, the activity change, negative = toxicity is reported as -5.62% (inactive). In the case of `COC(=O)Cn1nc(C)c2ccccc21`, the activity change, negative = toxicity is reported as -5.29% (inactive). With `O=C(c1ccc(Cl)cc1)N1CCN(c2ncccc2C(F)(F)F)CC1` the activity change, negative = toxicity was -21.5% (inactive). With `CCOC(=O)c1nn(Cc2ccc(Cl)cc2)c2ccccc12` the activity change, negative = toxicity was -28.4% (inactive). In the case of `CNC(=O)Cn1nc(-c2ccccc2)c2ccccc21`, the activity change, negative = toxicity is reported as -11.1% (inactive). In the case of `CCCCC(=O)N1CCN(c2ccccn2)CC1`, the activity change, negative = toxicity is reported as -7.03% (inactive). In the case of `COc1cccnc1N1CCN(C(=O)c2ccc(Cl)cc2)CC1`, the activity change, negative = toxicity is reported as -12.3% (inactive). With `O=C(Cn1c2ccccc2c2nc3n(c(=O)c21)CCS3)NCCc1ccc(Cl)cc1` the activity change, negative = toxicity was -7.62% (inactive). In the case of `COc1ccc(C(=O)N2CCN(c3ccccn3)CC2)cc1`, the activity change, negative = toxicity is reported as -22.2% (inactive). With `O=C(c1ccc(Cl)cc1)N1CCN(c2nc3ccccc3s2)CC1` the activity change, negative = toxicity was -24% (inactive). With `O=C(Cn1c2ccccc2c2nc3n(c(=O)c21)CCCS3)c1ccc(F)cc1` the activity change, negative = toxicity was -8.47% (inactive). With `Cc1ccnc(N2CCN(C(=O)c3ccc(Cl)cc3)CC2)c1` the activity change, negative = toxicity was -11.8% (inactive). In the case of `O=C(Cn1nc(-c2ccccc2)c2ccccc21)N1CCc2ccccc2C1`, the activity change, negative = toxicity is reported as -10.2% (inactive). In the case of `N#Cc1ccc(N2CCN(C(=O)c3ccc(Cl)cc3)CC2)nc1`, the activity change, negative = toxicity is reported as -15.6% (inactive). For `N#Cc1ccc(C(=O)N2CCN(c3ccccn3)CC2)cc1`, the activity change, negative = toxicity was 4.67% (inactive). In the case of `CC1CCN(C(=O)Cn2c3ccccc3c3nc4n(c(=O)c32)CCCS4)CC1`, the activity change, negative = toxicity is reported as -25.8% (inactive). For `COC(=O)Cn1nc(-c2ccc(C)cc2)c2ccccc21`, the activity change, negative = toxicity was 0.677% (inactive). In the case of `O=C(C1CCCCC1)N1CCN(c2ccccn2)CC1`, the activity change, negative = toxicity is reported as -19.3% (inactive). In the case of `COC(=O)Cn1nc(-c2ccccc2)c2cc(Cl)ccc21`, the activity change, negative = toxicity is reported as -7.62% (inactive). In the case of `O=C(Cn1c2ccc(F)cc2c2nc3n(c(=O)c21)CCS3)N1CCCCCC1`, the activity change, negative = toxicity is reported as -19.1% (inactive). With `COC(=O)Cn1nc(-c2ccccc2)c2ccccc21` the activity change, negative = toxicity was -16.9% (inactive). For `O=C(O)c1c2ccccc2nn1Cc1ccc(Cl)cc1`, the activity change, negative = toxicity was -7.54% (inactive). For `CCCNC(=O)Cn1nc(-c2ccccc2)c2cc(Cl)ccc21`, the activity change, negative = toxicity was -7.48% (inactive). In the case of `CCOC(=O)c1c2ccccc2nn1Cc1ccc(Cl)cc1`, the activity change, negative = toxicity is reported as 3.93% (inactive). In the case of `O=C(c1ccc(Cl)cc1)N1CCN(c2ccc(C(F)(F)F)cn2)CC1`, the activity change, negative = toxicity is reported as -6.38% (inactive). With `O=c1c2[nH]c3ccccc3c2nc2n1CCS2` the activity change, negative = toxicity was -21.3% (inactive). For `O=C(O)Cn1nc(-c2ccccc2)c2ccccc21`, the activity change, negative = toxicity was -27.1% (inactive). For `O=c1c2[nH]c3ccc(F)cc3c2nc2n1CCS2`, the activity change, negative = toxicity was 7.11% (inactive). In the case of `Cc1nn(S(C)(=O)=O)c2ccccc12`, the activity change, negative = toxicity is reported as -23.9% (inactive). In the case of `CC1CCN(C(=O)Cn2c3ccc(F)cc3c3nc4n(c(=O)c32)CCCS4)CC1`, the activity change, negative = toxicity is reported as -15.8% (inactive). With `O=C(Cn1nc(C(=O)N2CCCCC2)c2ccccc21)N1CCOCC1` the activity change, negative = toxicity was -2.32% (inactive). With `COCCC(=O)N1CCN(c2ccccn2)CC1` the activity change, negative = toxicity was -16% (inactive). In the case of `CC(C)C(=O)N1CCN(c2ccccn2)CC1`, the activity change, negative = toxicity is reported as 7.76% (inactive). With `CCCNC(=O)Cn1nc(-c2ccccc2)c2ccccc21` the activity change, negative = toxicity was -5.82% (inactive). In the case of `O=C(Cn1c2ccc(F)cc2c2nc3n(c(=O)c21)CCS3)N1CCCC1`, the activity change, negative = toxicity is reported as -34% (inactive). With `O=C(Cn1c2ccccc2c2ccncc21)N1CCCCC1` the activity change, negative = toxicity was -31.2% (inactive). In the case of `CC1CCN(C(=O)Cn2c3ccccc3c3nc4n(c(=O)c32)CCS4)CC1`, the activity change, negative = toxicity is reported as -20.3% (inactive). In the case of `CCN(CC)C(=O)Cn1c2ccccc2c2nc3n(c(=O)c21)CCS3`, the activity change, negative = toxicity is reported as -27% (inactive).

System: NIH-3T3 viability with fluconazole, Alamar Blue, 48 h
Assay: PubChem AID 493099
Settings: not given
In the case of `O=C(Cn1c2ccccc2c2nc3n(c(=O)c21)CCS3)N1CCCC1`, the AC50 is reported as 19.7 µM. With `O=C(Cn1nc(-c2ccccc2)c2cc(Cl)ccc21)N1CCOCC1` the AC50 was > 26 µM (inactive). For `Cc1ccc(N2CCN(C(=O)c3ccc(Cl)cc3)CC2)nc1`, the AC50 was > 26 µM (inactive). With `COc1ccc(NC(=O)Cn2c3ccccc3c3nc4n(c(=O)c32)CCS4)cc1` the AC50 was 6.04 µM. For `CCN(CC)C(=O)Cn1c2ccccc2c2nc3n(c(=O)c21)CCS3`, the AC50 was > 26 µM (inactive).
